This is an account of results in the NIST ThermoML archive (doi:10.1016/j.fluid.2014.11.020).

± gives the expanded uncertainty stated by the source.

The series can be described thus: activity coefficient (dimensionless); of the first substance listed, at infinite dilution; xn = mol fraction of the nth substance listed. The settings on record: Liquid, Chromatography, x1 = 0.

In the case of `C#CCCCC` [1-hexyne] + Cn1cc[n+](COCCCOC[n+]2ccn(C)c2)c1.N#C[N-]C#N.N#C[N-]C#N, the activity coefficient runs as follows: (323.15 K) 15.8 ± 1.1; (333.15 K) 15.2 ± 1; (343.15 K) 14.6 ± 1.

On to `CCCCCCCCCCC` [undecane] + CCCOC[n+]1ccn(Cc2ccccc2)c1.N#C[N-]C#N, for which the activity coefficient worked out at 208 ± 14 (323.15 K), 175 ± 12 (333.15 K) and 140 ± 9.6 (343.15 K).

On to `C#CCCCC` [1-hexyne] + CCCOC[n+]1ccn(C)c1.N#C[N-]C#N, for which the activity coefficient is 6.98 ± 0.48 (323.15 K) and 7.6 ± 0.52 (333.15 K).

For `CCCCCCCC` [octane] + CCCOC[n+]1ccn(Cc2ccccc2)c1.N#C[N-]C#N, the activity coefficient reads like this: (323.15 K) 70.1 ± 4.8; (333.15 K) 61.5 ± 4.2; (343.15 K) 57.8 ± 4.

Regarding `c1ccccc1` [benzene] + CCCOC[n+]1ccn(Cc2ccccc2)c1.N#C[N-]C#N, the activity coefficient runs as follows: (323.15 K) 1.51 ± 0.1; (333.15 K) 1.5 ± 0.1; (343.15 K) 1.5 ± 0.1.

As for `CCCCCCCCCCC` [undecane] + CCCOC[n+]1ccn(C)c1.F[B-](F)(F)F, the activity coefficient by setting is: (323.15 K) 911 ± 63; (333.15 K) 883 ± 61; (343.15 K) 780 ± 54.

Take `CCCCCCCCC` [nonane] + N#C[N-]C#N.N#C[N-]C#N.c1ccc(Cn2cc[n+](COCCCOC[n+]3ccn(Cc4ccccc4)c3)c2)cc1: the activity coefficient came out at 335 ± 23 (323.15 K), 264 ± 18 (333.15 K) and 226 ± 16 (343.15 K).

As for `CC(C)CO` [2-methyl-1-propanol] + CCCOC[n+]1ccn(Cc2ccccc2)c1.F[B-](F)(F)F, the activity coefficient is, setting by setting: (323.15 K) 2.86 ± 0.19; (333.15 K) 2.53 ± 0.17; (343.15 K) 2.34 ± 0.16.

Take `CCC(C)CC` [3-methylpentane] + CCCOC[n+]1ccn(Cc2ccccc2)c1.O=S(=O)([N-]S(=O)(=O)C(F)(F)F)C(F)(F)F: the activity coefficient runs as follows: (323.15 K) 8.01 ± 0.55; (333.15 K) 6.59 ± 0.45; (343.15 K) 5.91 ± 0.4.

As to `CCCCCCCC` [octane] + CCCCCCCCn1cc[n+](COCCC)c1C.N#C[N-]C#N, the activity coefficient (323.15 K) was found to be 11 ± 0.75, the activity coefficient (333.15 K) was 10.1 ± 0.69 and the activity coefficient (343.15 K) was 9.94 ± 0.68.

For `CCCCCCCCC` [nonane] + CCCCCCCCn1cc[n+](COCCCOC[n+]2ccn(CCCCCCCC)c2C)c1C.O=S(=O)([N-]S(=O)(=O)C(F)(F)F)C(F)(F)F.O=S(=O)([N-]S(=O)(=O)C(F)(F)F)C(F)(F)F, the activity coefficient was 8.26 ± 0.56 (323.15 K), 7.45 ± 0.51 (333.15 K) and 7.1 ± 0.48 (343.15 K).

Turning to `C#CCCCC` [1-hexyne] + CCCCCCCCn1cc[n+](COCCC)c1C.N#C[N-]C#N, the activity coefficient runs as follows: (323.15 K) 1.73 ± 0.12; (333.15 K) 2.14 ± 0.15; (343.15 K) 2.01 ± 0.14.

On to `Cc1ccccc1C` [1,2-dimethylbenzene] + CN(C)c1cc[n+](COCCCOC[n+]2ccc(N(C)C)cc2)cc1.O=S(=O)([N-]S(=O)(=O)C(F)(F)F)C(F)(F)F.O=S(=O)([N-]S(=O)(=O)C(F)(F)F)C(F)(F)F, for which the activity coefficient (323.15 K) is 1.18 ± 0.08, the activity coefficient (333.15 K) is 1.2 ± 0.08 and the activity coefficient (343.15 K) was 1.22 ± 0.08.

With `CCCC(C)=O` [pentan-2-one] + CCCCCCCCn1cc[n+](COCCCOC[n+]2ccn(CCCCCCCC)c2C)c1C.N#C[N-]C#N.N#C[N-]C#N, the activity coefficient is, setting by setting: (323.15 K) 0.8 ± 0.05; (333.15 K) 0.8 ± 0.05; (343.15 K) 0.81 ± 0.05.

Turning to `CCC(=O)CC` [pentan-3-one] + CCCCCCCCn1cc[n+](COCCCOC[n+]2ccn(CCCCCCCC)c2C)c1C.O=S(=O)([N-]S(=O)(=O)C(F)(F)F)C(F)(F)F.O=S(=O)([N-]S(=O)(=O)C(F)(F)F)C(F)(F)F, the activity coefficient is 0.28 ± 0.03 (323.15 K), 0.28 ± 0.03 (333.15 K) and 0.29 ± 0.03 (343.15 K).

Consider `C=CCCCC` [hex-1-ene] + CCCOC[n+]1ccn(Cc2ccccc2)c1.N#C[N-]C#N, for which the activity coefficient runs as follows: (323.15 K) 15.9 ± 1.1; (333.15 K) 14.8 ± 1.

On to `CCC(C)=O` [butanone] + CCCOC[n+]1ccc(N(C)C)cc1.O=S(=O)([N-]S(=O)(=O)C(F)(F)F)C(F)(F)F, for which the activity coefficient is, setting by setting: (323.15 K) 0.51 ± 0.04; (333.15 K) 0.49 ± 0.04; (343.15 K) 0.45 ± 0.04.

For `ClC(Cl)(Cl)Cl` [tetrachloromethane] + CCCCCCCCn1cc[n+](COCCCOC[n+]2ccn(CCCCCCCC)c2C)c1C.N#C[N-]C#N.N#C[N-]C#N, the activity coefficient runs as follows: (323.15 K) 1.11 ± 0.07; (333.15 K) 1.12 ± 0.07; (343.15 K) 1.12 ± 0.07.

In the case of `CCCC(C)=O` [pentan-2-one] + Cn1cc[n+](COCCCOC[n+]2ccn(C)c2)c1.N#C[N-]C#N.N#C[N-]C#N, the activity coefficient was determined as 3.5 ± 0.24 (323.15 K), 3.5 ± 0.24 (333.15 K) and 3.49 ± 0.24 (343.15 K).

Turning to `ClCCl` [dichloromethane] + CCCOC[n+]1ccn(Cc2ccccc2)c1.F[B-](F)(F)F, the activity coefficient (323.15 K) amounted to 0.78 ± 0.05, the activity coefficient (333.15 K) is 0.78 ± 0.05 and the activity coefficient (343.15 K) is 0.79 ± 0.05.

Take `CCCCCC` [hexane] + CCCOC[n+]1ccc(N(C)C)cc1.O=S(=O)([N-]S(=O)(=O)C(F)(F)F)C(F)(F)F: the activity coefficient runs as follows: (323.15 K) 11.9 ± 0.81; (333.15 K) 11 ± 0.75; (343.15 K) 10.1 ± 0.69.

Regarding `c1ccncc1` [pyridine] + CCCCCCCCn1cc[n+](COCCC)c1C.O=S(=O)([N-]S(=O)(=O)C(F)(F)F)C(F)(F)F, the activity coefficient (323.15 K) was 0.35 ± 0.03, the activity coefficient (333.15 K) stood at 0.34 ± 0.03 and the activity coefficient (343.15 K) stood at 0.3 ± 0.03.

Regarding `CC(C)OC(C)C` [diisopropyl ether] + CCCCCCCCn1cc[n+](COCCC)c1C.N#C[N-]C#N, the activity coefficient runs as follows: (323.15 K) 4.17 ± 0.28; (333.15 K) 4.05 ± 0.28.

Turning to `CCC(C)=O` [butanone] + CCCOC[n+]1ccn(C)c1.F[B-](F)(F)F, the activity coefficient runs as follows: (323.15 K) 1.73 ± 0.12; (333.15 K) 1.6 ± 0.11; (343.15 K) 1.49 ± 0.1.

Turning to `ClC(Cl)(Cl)Cl` [tetrachloromethane] + CCCOC[n+]1ccn(Cc2ccccc2)c1.O=S(=O)([N-]S(=O)(=O)C(F)(F)F)C(F)(F)F, the activity coefficient amounted to 1.87 ± 0.13 (323.15 K), 1.83 ± 0.12 (333.15 K) and 1.81 ± 0.12 (343.15 K).

On to `ClC(Cl)(Cl)Cl` [tetrachloromethane] + CCCOC[n+]1ccn(C)c1.N#C[N-]C#N, for which the activity coefficient (323.15 K) was 4.04 ± 0.28, the activity coefficient (333.15 K) stood at 4.08 ± 0.28 and the activity coefficient (343.15 K) stood at 4.39 ± 0.3.

With `c1ccncc1` [pyridine] + CCCCCCCCn1cc[n+](COCCC)c1C.N#C[N-]C#N, the activity coefficient by setting is: (323.15 K) 0.66 ± 0.05; (333.15 K) 0.59 ± 0.04; (343.15 K) 0.54 ± 0.04.

For `CC#N` [acetonitrile] + CCCOC[n+]1ccn(Cc2ccccc2)c1.O=S(=O)([N-]S(=O)(=O)C(F)(F)F)C(F)(F)F, the activity coefficient runs as follows: (323.15 K) 0.39 ± 0.03; (333.15 K) 0.34 ± 0.03; (343.15 K) 0.34 ± 0.03.

Regarding `c1ccccc1` [benzene] + CCCCCCCCn1cc[n+](COCCC)c1C.O=S(=O)([N-]S(=O)(=O)C(F)(F)F)C(F)(F)F, the activity coefficient by setting is: (323.15 K) 0.6 ± 0.04; (333.15 K) 0.59 ± 0.04; (343.15 K) 0.59 ± 0.04.
